Active and inactive are the calls of the source.
How the values were obtained:
HeLa = assay: Cytotoxicity counterscreen assay for transcriptional activators of heat shock protein 70 (Hsp70). [Related pubchem assays: 1203, 1252 ]; assay type: functional; details: Homo sapiens;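 also: cells exposed to compound for 16 hours before readout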
[1] = target: Inward rectifier potassium channel 2 (Mus musculus, UniProt P35561); assay: Manual electrophysiological patch clamp assay for SAR compounds that inhibit/block inward-rectifying potassium ion channel Kir2.1. [Related pubchem assays: 1843 (Summary assay for Kir2.1 inhibitor assays.), 1672 (Primary HTS of 305616 compounds where 2592 were identified as active.)]; assay type: functional
Inward rectifier potassium channel 2, sequence (P35561 whole entry): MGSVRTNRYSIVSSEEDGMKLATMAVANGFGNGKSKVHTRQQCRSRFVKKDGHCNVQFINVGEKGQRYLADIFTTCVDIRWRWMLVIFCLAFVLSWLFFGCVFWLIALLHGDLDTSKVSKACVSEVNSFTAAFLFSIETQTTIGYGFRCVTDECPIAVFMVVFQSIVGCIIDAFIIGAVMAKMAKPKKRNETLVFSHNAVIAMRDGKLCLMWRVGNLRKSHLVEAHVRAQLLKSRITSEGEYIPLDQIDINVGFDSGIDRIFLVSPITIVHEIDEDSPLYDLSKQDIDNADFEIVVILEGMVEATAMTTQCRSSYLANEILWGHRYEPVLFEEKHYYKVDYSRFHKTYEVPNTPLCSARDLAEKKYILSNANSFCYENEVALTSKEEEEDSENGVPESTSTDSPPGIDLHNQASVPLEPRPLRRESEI

Aminopeptidase N = target: T1, Aminopeptidase N (Plasmodium falciparum FcB1/Columbia, UniProt O96935); assay: P. falciparum M1AAP inhibitors, biochemical, fluorogenic H-Leu-NHMec substrate, 1536-well (AID 1445); set-up: species or system Plasmodium falciparum 3D7, 3D7
T1 sequence (O96935 whole entry): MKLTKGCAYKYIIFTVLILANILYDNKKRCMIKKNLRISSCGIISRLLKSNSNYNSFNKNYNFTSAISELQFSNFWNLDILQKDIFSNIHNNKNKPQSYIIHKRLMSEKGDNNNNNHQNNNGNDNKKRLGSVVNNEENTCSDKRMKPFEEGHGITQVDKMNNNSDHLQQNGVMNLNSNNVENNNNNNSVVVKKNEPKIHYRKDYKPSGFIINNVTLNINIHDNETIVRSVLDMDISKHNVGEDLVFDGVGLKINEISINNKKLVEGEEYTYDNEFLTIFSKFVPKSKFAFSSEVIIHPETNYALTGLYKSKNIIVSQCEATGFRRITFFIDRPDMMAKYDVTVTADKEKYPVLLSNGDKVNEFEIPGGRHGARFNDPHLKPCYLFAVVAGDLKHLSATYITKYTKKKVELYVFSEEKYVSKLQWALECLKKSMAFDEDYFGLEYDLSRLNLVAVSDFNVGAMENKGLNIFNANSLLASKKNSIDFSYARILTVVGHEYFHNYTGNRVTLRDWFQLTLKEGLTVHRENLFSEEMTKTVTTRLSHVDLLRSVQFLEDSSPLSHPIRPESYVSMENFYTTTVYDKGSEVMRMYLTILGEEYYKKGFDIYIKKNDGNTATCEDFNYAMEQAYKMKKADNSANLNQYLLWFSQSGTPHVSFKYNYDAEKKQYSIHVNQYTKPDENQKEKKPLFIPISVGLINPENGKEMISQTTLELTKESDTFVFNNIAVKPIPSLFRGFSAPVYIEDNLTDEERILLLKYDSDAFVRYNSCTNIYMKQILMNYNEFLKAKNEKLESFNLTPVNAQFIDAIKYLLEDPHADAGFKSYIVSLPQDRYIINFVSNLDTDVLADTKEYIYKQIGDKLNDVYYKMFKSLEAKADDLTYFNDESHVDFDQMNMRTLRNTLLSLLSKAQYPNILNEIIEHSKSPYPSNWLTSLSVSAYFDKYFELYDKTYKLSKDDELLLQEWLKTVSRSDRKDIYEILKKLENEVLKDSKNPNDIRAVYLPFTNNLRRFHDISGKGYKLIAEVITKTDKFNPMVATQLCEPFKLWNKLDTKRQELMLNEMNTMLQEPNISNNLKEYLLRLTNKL

[2] = HIV-1 Env-mediated cell fusion inhibitors, dose response, CCR5-tropic Env (AID 2279); assay type: functional
[3] = target: T2, Calpain-2 catalytic subunit (Sus scrofa, UniProt P43367); assay: pig calpain II inhibitor potency, dose response, biochemical, fluorogenic peptide substrate (AID 1420); assay type: functional
T2 sequence (P43367 whole entry): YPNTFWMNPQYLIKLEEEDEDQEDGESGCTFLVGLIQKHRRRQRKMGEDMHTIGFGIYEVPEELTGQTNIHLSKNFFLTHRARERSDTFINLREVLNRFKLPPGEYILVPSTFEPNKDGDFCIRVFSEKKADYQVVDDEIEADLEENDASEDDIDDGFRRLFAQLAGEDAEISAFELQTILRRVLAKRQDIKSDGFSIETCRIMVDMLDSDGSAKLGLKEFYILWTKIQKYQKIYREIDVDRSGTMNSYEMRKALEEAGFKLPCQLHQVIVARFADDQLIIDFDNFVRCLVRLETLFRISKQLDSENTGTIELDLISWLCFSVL

[4] = target: Induced myeloid leukemia cell differentiation protein Mcl-1 (Homo sapiens, UniProt Q07820); assay type: functional
Induced myeloid leukemia cell differentiation protein Mcl-1, sequence (Q07820 whole entry): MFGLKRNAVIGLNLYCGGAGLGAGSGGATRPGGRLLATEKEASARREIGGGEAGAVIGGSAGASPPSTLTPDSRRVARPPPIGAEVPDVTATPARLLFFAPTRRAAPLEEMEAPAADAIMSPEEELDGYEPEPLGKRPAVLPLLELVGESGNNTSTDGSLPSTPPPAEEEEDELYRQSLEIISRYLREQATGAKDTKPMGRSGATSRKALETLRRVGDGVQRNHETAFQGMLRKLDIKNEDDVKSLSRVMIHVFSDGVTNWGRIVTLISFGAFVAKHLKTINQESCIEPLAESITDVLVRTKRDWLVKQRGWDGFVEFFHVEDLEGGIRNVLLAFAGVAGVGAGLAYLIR

Large T antigen = Large T antigen (Simian virus 40, UniProt P03070); assay type: functional, Betapolyomavirus macacae;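 also: Confirmatory-stage PubChem screen for compounds that inhibit SV40 T antigen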
Estrogen receptor beta = Estrogen receptor beta (Homo sapiens, UniProt Q92731); assay: ERβ–SRC-3 coactivator interaction inhibitors, confirmation, orthogonal assay, biochemical, ELISA, streptavidin-HRP readout (AID 1060)
[5] = cytotoxicity in HPDE-C7 cells, cell-based, fluorescence, HTS (AID 430); assay type: functional; details: Homo sapiens
[6] = cytotoxicity in KRAS-transformed pancreatic duct cells, primary screen, cell-based, fluorescence, HTS (AID 431); assay type: functional; details: Homo sapiens;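 also: cell line used: HPDE-C7K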
[7] = Counterscreen for IDE inhibitors: Luminescence-based cell-based high throughput dose response assay to identify compounds that are cytotoxic to HEK cells. [Related pubchem assays: 434962 (Primary screen (IDE inhibitors in singlicate)), 449730 (Counterscreen (Cytotoxicity in triplicate)), 435028 (Confirmation (IDE inhibitors in triplicate)) …; assay type: functional; details: HEK293
Insulin-degrading enzyme = target: T3, Insulin-degrading enzyme (Homo sapiens, UniProt P14735); assay: Dose Response: Fluorescence polarization-based cell-based high throughput dose response assay for inhibitors of insulin-degrading enzyme (IDE). [Related pubchem assays: 434962 (Primary screen (IDE inhibitors in singlicate)), 449730 (Counterscreen (Cytotoxicity in triplicate)), 435028 (Confirmation (IDE inhibitors in triplicate)), 434984 (Summary …; assay type: functional
T3 sequence (P14735 whole entry): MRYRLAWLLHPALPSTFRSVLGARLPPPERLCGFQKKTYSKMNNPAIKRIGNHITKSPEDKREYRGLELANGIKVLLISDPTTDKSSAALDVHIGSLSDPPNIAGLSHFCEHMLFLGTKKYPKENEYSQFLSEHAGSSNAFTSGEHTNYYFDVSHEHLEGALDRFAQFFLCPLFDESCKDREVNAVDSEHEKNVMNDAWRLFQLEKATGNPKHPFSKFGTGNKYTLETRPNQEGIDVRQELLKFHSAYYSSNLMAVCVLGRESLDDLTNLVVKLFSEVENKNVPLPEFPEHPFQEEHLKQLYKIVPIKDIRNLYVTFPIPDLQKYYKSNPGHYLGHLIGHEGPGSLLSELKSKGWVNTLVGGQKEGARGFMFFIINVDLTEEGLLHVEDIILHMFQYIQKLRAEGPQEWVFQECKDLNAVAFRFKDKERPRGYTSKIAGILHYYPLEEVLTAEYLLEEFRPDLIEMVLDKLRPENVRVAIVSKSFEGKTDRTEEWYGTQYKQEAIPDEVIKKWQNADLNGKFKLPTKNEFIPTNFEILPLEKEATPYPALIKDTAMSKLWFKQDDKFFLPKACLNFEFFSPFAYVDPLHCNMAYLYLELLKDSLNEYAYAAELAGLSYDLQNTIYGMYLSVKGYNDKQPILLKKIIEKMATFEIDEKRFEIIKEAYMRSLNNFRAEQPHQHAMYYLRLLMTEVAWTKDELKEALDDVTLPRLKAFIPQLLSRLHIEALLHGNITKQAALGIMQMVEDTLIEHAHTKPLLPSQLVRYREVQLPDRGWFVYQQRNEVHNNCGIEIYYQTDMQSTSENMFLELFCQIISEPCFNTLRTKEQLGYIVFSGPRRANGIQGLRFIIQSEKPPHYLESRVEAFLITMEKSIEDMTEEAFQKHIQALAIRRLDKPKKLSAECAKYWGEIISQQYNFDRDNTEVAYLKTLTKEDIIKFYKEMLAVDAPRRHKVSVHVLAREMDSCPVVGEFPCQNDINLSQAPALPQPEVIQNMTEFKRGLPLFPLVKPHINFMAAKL

[8] = target: Photoreceptor-specific nuclear receptor (Homo sapiens, UniProt Q9Y5X4); assay type: functional;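 also: potency for compounds that break the NR2E3 corepressor complex and count as activators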
NS3 = NS3 (Hepatitis C virus, UniProt A3EZJ3); assay: PubChem AID 2173; set-up: species or system Hepacivirus hominis
NS3, sequence (A3EZJ3 whole entry): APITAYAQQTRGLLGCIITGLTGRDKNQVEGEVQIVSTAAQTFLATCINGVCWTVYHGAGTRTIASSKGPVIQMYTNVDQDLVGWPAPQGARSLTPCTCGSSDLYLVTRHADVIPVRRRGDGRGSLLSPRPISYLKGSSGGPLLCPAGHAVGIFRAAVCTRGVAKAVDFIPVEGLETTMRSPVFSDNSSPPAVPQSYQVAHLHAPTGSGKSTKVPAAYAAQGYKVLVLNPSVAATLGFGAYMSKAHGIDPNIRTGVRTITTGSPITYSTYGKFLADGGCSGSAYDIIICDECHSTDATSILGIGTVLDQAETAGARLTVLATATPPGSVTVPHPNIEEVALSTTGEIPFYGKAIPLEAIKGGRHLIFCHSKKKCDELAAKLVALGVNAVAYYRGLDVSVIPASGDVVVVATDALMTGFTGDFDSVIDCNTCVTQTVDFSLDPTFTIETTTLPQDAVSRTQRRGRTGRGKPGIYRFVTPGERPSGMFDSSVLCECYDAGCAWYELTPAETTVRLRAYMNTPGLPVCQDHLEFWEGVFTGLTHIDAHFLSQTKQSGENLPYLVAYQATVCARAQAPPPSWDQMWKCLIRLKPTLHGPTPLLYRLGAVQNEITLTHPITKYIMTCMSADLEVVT

[9] = target: Peroxisome proliferator-activated receptor gamma/Nuclear receptor corepressor 2 (Homo sapiens, UniProt P37231+Q9Y618); assay type: functional
Peroxisome proliferator-activated receptor gamma/Nuclear receptor corepressor 2, sequence (P37231 whole entry): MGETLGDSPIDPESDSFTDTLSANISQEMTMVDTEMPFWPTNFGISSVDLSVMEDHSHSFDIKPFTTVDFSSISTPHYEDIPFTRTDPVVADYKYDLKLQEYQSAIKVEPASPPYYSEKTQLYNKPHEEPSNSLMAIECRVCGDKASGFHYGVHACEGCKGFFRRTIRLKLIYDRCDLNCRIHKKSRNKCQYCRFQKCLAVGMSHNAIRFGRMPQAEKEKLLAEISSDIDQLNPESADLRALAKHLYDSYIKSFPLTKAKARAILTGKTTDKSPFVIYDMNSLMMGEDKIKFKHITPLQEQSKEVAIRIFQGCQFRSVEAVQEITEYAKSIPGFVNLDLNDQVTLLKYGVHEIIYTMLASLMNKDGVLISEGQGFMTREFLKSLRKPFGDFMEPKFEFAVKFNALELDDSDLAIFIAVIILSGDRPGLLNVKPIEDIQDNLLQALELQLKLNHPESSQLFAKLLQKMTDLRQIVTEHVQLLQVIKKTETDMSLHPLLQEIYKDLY
Peroxisome proliferator-activated receptor gamma/Nuclear receptor corepressor 2, sequence (Q9Y618 whole entry): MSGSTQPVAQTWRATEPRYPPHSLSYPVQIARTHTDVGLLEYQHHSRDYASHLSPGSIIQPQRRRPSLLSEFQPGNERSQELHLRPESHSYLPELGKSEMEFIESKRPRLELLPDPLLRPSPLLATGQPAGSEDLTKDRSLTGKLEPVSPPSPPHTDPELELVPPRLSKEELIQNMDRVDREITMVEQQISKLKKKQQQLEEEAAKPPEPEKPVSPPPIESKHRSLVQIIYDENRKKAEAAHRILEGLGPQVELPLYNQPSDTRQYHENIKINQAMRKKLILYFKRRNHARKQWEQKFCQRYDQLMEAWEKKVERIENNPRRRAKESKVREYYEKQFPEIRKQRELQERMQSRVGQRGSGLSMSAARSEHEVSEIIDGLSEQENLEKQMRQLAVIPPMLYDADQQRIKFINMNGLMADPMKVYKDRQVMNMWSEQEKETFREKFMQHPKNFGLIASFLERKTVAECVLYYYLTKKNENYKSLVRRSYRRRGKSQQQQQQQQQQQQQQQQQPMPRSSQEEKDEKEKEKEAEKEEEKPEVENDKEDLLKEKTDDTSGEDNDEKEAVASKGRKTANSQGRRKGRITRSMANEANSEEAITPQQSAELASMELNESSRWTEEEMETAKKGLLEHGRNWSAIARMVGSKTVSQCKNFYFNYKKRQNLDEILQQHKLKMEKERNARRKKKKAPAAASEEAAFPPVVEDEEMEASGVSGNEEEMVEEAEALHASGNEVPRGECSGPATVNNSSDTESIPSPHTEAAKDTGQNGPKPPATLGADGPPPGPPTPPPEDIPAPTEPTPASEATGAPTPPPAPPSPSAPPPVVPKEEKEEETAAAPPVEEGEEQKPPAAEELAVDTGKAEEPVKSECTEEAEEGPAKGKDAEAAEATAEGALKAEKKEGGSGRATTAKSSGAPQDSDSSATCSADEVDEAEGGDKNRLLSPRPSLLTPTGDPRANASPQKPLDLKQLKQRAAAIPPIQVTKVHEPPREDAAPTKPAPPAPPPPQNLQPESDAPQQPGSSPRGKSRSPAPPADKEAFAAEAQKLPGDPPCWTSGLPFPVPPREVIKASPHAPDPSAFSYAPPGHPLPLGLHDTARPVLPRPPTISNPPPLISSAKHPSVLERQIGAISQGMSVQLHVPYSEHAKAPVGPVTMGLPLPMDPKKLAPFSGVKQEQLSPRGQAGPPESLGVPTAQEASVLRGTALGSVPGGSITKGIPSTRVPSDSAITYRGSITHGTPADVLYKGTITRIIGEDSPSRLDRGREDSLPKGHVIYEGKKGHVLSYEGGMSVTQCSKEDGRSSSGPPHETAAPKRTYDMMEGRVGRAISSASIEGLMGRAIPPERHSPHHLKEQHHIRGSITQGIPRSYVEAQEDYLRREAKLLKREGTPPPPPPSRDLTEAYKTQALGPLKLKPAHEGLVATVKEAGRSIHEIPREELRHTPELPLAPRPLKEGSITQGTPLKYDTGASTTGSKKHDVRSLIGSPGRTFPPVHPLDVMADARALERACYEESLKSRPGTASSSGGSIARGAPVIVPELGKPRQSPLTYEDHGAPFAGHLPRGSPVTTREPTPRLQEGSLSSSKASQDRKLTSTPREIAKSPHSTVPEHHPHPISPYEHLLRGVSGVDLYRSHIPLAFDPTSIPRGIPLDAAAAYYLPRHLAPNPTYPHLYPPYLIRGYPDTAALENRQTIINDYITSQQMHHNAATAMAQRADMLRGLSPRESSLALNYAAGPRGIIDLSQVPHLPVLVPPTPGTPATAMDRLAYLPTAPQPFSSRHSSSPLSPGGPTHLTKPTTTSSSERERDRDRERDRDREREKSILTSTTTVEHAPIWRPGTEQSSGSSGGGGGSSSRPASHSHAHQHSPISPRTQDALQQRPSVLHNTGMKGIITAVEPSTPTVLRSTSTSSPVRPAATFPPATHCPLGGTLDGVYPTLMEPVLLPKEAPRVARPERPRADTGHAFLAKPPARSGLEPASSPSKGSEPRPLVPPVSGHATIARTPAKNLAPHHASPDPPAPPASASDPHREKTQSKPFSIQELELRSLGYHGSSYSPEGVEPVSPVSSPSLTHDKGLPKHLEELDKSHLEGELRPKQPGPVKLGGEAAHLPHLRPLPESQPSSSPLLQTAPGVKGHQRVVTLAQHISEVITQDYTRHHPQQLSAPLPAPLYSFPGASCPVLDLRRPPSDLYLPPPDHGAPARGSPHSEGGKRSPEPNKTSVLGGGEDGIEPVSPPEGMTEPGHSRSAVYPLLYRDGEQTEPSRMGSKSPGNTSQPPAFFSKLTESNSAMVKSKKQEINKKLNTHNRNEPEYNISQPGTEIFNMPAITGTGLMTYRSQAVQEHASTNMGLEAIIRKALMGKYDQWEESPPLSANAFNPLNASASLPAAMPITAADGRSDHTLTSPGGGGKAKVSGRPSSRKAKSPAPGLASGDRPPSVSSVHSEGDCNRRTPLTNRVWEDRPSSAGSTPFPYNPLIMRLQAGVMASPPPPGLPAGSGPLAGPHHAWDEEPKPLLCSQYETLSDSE

[10] = target: Peroxisome proliferator-activated receptor gamma/Nuclear receptor coactivator 2 (Homo sapiens, UniProt P37231); assay type: functional;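 also: agonist potency for raising coactivator recruitment to the receptor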
[11] = target: Peroxisome proliferator-activated receptor gamma/Nuclear receptor coactivator 1 (Homo sapiens, UniProt P37231); assay type: functional;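 also: agonist potency as compounds enhance coactivator SRC-1 recruitment to PPARgamma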
[12] = target: Peroxisome proliferator-activated receptor gamma/Nuclear receptor coactivator 3 (Homo sapiens, UniProt P37231); assay type: functional;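 also: agonist potency for raising coactivator recruitment to the receptor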
[13] = NIH-3T3 fibroblast cytotoxicity, dose response, cytotoxicity control, cell-based, fluorescence, Alamar Blue, secondary assay (AID 2327); assay type: functional;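 also: NIH-3T3 mouse fibroblasts cultured with fluconazole at 8 µg/mL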
[14] = Luminescence Cell-Based Dose Confirmation HTS to Identify Activators of 5'UTR Stem-Loop Driven Alpha-Synuclein mRNA Translation in H4 Neuroglioblastoma Cells. [Related pubchem assays: 1829 (Project Summary), 1814 (Primary HTS)]; assay type: functional
[15] = Luminescence Cell-Based Dose Response HTS to Identify Activators of Luciferase Translation or Activity in H4 […] Cells. [Related pubchem assays: 1829 (Project Summary), 1814 (Primary HTS)]; assay type: functional
[16] = target: T4, Heat shock factor protein 1 (Mus musculus, UniProt P38532); assay: inhibition of MG132-induced HSE-luciferase signal, confirmation, cell-based, NIH3T3, luminescence, dose retest (AID 2382); assay type: functional;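 also: NIH3T3 fibroblasts with HSF1-driven luciferase reporter stressed by proteasome inhibitor MG132; luminescence from HSF1-driven luciferase expression after 8 hours of MG132 stress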
T4 sequence (P38532 whole entry): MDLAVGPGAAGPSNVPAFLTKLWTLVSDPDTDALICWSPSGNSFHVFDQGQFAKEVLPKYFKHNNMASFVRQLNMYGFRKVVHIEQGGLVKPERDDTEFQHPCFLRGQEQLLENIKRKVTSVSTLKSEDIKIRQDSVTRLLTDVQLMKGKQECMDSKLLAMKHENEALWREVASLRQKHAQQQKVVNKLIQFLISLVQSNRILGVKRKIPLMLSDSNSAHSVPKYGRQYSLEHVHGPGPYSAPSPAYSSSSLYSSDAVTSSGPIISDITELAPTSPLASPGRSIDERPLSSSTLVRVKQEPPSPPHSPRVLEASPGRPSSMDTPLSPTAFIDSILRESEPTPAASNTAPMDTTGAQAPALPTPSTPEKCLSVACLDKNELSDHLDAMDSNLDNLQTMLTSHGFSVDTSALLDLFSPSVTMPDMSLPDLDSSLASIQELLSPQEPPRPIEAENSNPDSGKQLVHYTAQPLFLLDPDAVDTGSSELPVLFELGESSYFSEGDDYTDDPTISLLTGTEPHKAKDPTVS

[17] = C. albicans growth with fluconazole, confirmation, fluorescence, retest (AID 2467); assay type: functional, cell-based
[18] = M. tuberculosis H37Rv growth inhibitors, H37Rv strain (AID 1626); assay type: functional
[19] = inhibitors of firefly luciferase expression or activity, dose response, H4 neuroglioma cells, luminescence (AID 1990); assay type: functional, cell-based
[20] = Luminescence Cell-Based Dose Response HTS to Identify Inhibitors of 5'UTR Stem-Loop Driven Prion Protein mRNA Translation in H4 Neuroglioblastoma Cells. [Related pubchem assays: 1827 (Project Summary), 1813 (Primary HTS)]; assay type: functional
[21] = inhibitors of SNCA 5'UTR-driven reporter translation, confirmation, H4 neuroglioma cells, luminescence (AID 1988); assay type: functional, cell-based
[22] = Luminescence-based counterscreen assay for KLF5 inhibitors: dose response cell-based high throughput screening assay to identify cytotoxic compounds using the IEC-6 intestinal epithelial cell line. [Related pubchem assays: 1700 (Primary screen.), 1834 (Confirmation screen.), 1858 (Summary AID.), 1905 (Counterscreen.)]; assay type: functional
Paired box protein Pax-8 = Paired box protein Pax-8 (Homo sapiens, UniProt Q06710); assay: inhibitors of PAX8-driven TPO luciferase reporter, dose response, RMG-I cells, cherry-pick (AID 687027); assay type: functional, cell-based;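 also: luciferase reporter driven by Pax8 target thyroperoxidase promoter measured by SteadyGlo luminescence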
Paired box protein Pax-8, sequence (Q06710 whole entry): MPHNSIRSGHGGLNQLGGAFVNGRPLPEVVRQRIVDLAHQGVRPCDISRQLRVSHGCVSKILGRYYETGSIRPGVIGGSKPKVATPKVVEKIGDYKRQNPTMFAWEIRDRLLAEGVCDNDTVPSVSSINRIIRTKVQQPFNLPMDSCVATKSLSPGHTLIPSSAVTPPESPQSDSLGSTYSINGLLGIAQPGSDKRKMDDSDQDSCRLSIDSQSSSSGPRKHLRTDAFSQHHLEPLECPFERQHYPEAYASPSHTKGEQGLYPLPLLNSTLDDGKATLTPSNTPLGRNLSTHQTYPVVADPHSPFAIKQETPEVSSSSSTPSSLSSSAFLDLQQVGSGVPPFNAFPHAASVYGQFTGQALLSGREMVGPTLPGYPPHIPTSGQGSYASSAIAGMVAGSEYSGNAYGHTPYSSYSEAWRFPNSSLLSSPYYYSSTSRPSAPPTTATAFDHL

[23] = non-specific cell cytotoxicity, dose response, cytotoxicity control for PAX8 inhibitor project, plate reader, dry powder samples (AID 743021); assay type: functional, cell-based
[24] = Luminescence Cell-Based Dose Confirmation HTS to Identify Inhibitors of Polyadenylation.; assay type: functional

CN(C)/C=C1/NC(=S)NC1=O
CC50 (HeLa): > 99 µM (not active)

COc1ccc(CNCc2ccccc2C)cc1
IC50 [1]: 9.08 µM (active)

COc1cc(/C=C2\SC(=S)NC2=O)ccc1OS(=O)(=O)c1ccccc1
IC50 (Aminopeptidase N): 38.6 µM (active)
IC50 [2]: 16.5 µM (active)
IC50 [3]: 11.1 µM (not active)
IC50 [4]: 2.79 µM (active)

Cc1cc(-c2nc3c4c5c(sc4nc(O)n3n2)CCC5)c(C)o1
IC50 (Large T antigen): 24.8 µM (active)
IC50 (Estrogen receptor beta): 18.6 µM (not active)
IC50 [4]: 3.05 µM (active)

Cc1cc(C(=O)Nc2sc3c(c2C#N)CCC(C)C3)cs1 (configuration not stated)
EC50 [5]: > 20 µM (not active)
EC50 [6]: > 20 µM (not active)

CC(Oc1ccc2c3c(c(=O)oc2c1)CCCC3)C(=O)NCc1ccncc1 (configuration not stated)
IC50 [7]: 36.4 µM (not active)
IC50 (Insulin-degrading enzyme): > 55.9 µM (not active)

Cc1ccc(C(=O)C2=C(O)C(=O)N(Cc3cccnc3)C2c2cccc(Oc3ccccc3)c2)o1 (configuration not stated)
IC50 [8]: 5.73 µM (active)
IC50 (NS3): 6.11 µM (active)
IC50 [9]: 2.46 µM (active)

O=C(Nc1nc(-c2ccccc2)nc2ccccc12)c1ccc(F)cc1
EC50 [10]: 13.5 µM (not active)
EC50 [11]: 17.2 µM (not active)
EC50 [12]: 23 µM (not active)

COc1cc(/C=N/N=C(/Nc2ccc(C)cc2)c2nc3ccccc3s2)ccc1O
EC50 [13]: > 150 µM (inactive)
EC50 [14]: 17.6 µM (active)
EC50 [15]: 0.154 µM (active)
EC50 [16]: < 0.16 µM (active)
EC50 [17]: > 38 µM (not active)
IC50 [18]: > 100 µM (active)

C/C(=N\NC(=O)c1[nH]nc2c1CCC2)c1cccs1
EC50 [19]: 4.85 µM (active)
EC50 [20]: 4.49 µM (active)
EC50 [21]: 2.95 µM (active)
IC50 [22]: 10.1 µM (not active)
AC50 (Paired box protein Pax-8): 5.19 µM (active)
AC50 [23]: 8.65 µM (active)

C/C(=N\NC(=O)COc1ccc(C)cc1[N+](=O)[O-])c1cccs1
EC50 [24]: > 120 µM (not active)

— ChEMBL document CHEMBL1201862, “PubChem BioAssay data set” (2004)
